Experimental findings from ChEMBL document CHEMBL1201862, “PubChem BioAssay data set” (2004) are described below.

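48-hour exposure; five concentrations; linearly interpolated endpoints. GI50 is the concentration that inhibits growth by half.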 The source made the active and inactive calls. Cut-off read from the data, not from the text of the source: active = GI50 up to about 1.1 µM and inactive = higher.

Some test systems named below: CAKI-1; NCI-H226; MOLT-4; SK-MEL-28; A549; ACHN; HCC 2998; KM12; OVCAR-5; MDA-MB-231; SF-539; EKVX; M14; SK-OV-3; Hs-578T; RPMI-8226; UO-31; SNB-19; T47D; BT-549.
Assay in all cases: NCI anticancer screen, dose series, 48 h

Turning to `O=C(c1ccccc1)c1c(C(F)(F)F)[n+]([O-])c2cc(F)c(F)cc2[n+]1[O-]`, the GI50 in the assay with CAKI-1 is 0.807 µM (active); with NCI-H226, 1.73 µM (inactive); in the assay with MOLT-4 it was 0.242 µM (active); with SK-MEL-28, 1.26 µM (inactive); in the assay on A549, 2.95 µM (inactive); with ACHN, 0.0929 µM (active). The GI50 with HCC 2998 is 0.589 µM (active); in the assay on KM12, 1.07 µM (active); in the assay with OVCAR-5, 1.51 µM (inactive); in the assay with MDA-MB-231 it was 0.61 µM (active); in the assay on SF-539, 0.838 µM (active); with EKVX, 2.45 µM (inactive). In addition, the GI50 with M14 was 0.698 µM (active); in the assay on SK-OV-3, 5.97 µM (inactive); in the assay on Hs-578T, 0.942 µM (active); with RPMI-8226 it was 0.679 µM (active); with UO-31, 1.38 µM (inactive); in the assay with SNB-19, 4.05 µM (inactive). In the assay with T47D, the GI50 is 1.79 µM (inactive).

Turning to `CCOP(=O)(OCC)Oc1c(OC)c2[nH]c(C(=O)OC)cc2c2c(C(=O)O)c[nH]c12`, the GI50 in the assay with CAKI-1, with MOLT-4, with SK-MEL-28, in the assay on A549, with ACHN and in the assay with HCC 2998 was > 100 µM (inactive) throughout. The GI50 was 28.6 µM (inactive) in the assay on KM12; > 100 µM (inactive) with OVCAR-5; > 100 µM (inactive) in the assay on MDA-MB-231; > 100 µM (inactive) with SF-539; > 100 µM (inactive) in the assay on EKVX; > 100 µM (inactive) with BT-549. Moreover, the GI50 with M14, with SK-OV-3, in the assay with Hs-578T, in the assay on UO-31, in the assay with SNB-19 and in the assay on T47D was > 100 µM (inactive) in each case.

`CCCCN(CCCC)C(=C(C(Cl)=C(Cl)Cl)[N+](=O)[O-])N(CCCC)CCCC`: the GI50 in the assay on CAKI-1 is > 100 µM (inactive); in the assay on NCI-H226 it was > 100 µM (inactive); with SK-MEL-28, > 100 µM (inactive); in the assay on A549 it was > 100 µM (inactive); with ACHN, > 100 µM (inactive); in the assay on KM12, 72.1 µM (inactive). Besides, the GI50 is 85.5 µM (inactive) with OVCAR-5; 65.2 µM (inactive) in the assay on MDA-MB-231; > 100 µM (inactive) in the assay on SF-539; 67.5 µM (inactive) with EKVX; > 100 µM (inactive) in the assay with BT-549; > 100 µM (inactive) in the assay on M14. For the same compound, the GI50 in the assay on SK-OV-3 was > 100 µM (inactive); with RPMI-8226 it was 18.7 µM (inactive); in the assay with UO-31, > 100 µM (inactive); with SNB-19, > 100 µM (inactive); in the assay with T47D, 73.8 µM (inactive).

For the compound `Cc1ccc(/C=c2\c(=O)[nH]c3nc4ccccc4c(=O)n23)cc1`, the GI50 was > 100 µM (inactive) with CAKI-1; 38.8 µM (inactive) in the assay on MOLT-4; 43.9 µM (inactive) in the assay on SK-MEL-28; 94.4 µM (inactive) in the assay on A549; > 100 µM (inactive) with ACHN; 25.4 µM (inactive) in the assay on HCC 2998. Moreover, the GI50 was 45.7 µM (inactive) in the assay with KM12; > 100 µM (inactive) in the assay on OVCAR-5; 43.9 µM (inactive) in the assay with MDA-MB-231; 18.8 µM (inactive) in the assay with SF-539; 21.6 µM (inactive) with BT-549; 37.5 µM (inactive) with M14. The GI50 was > 100 µM (inactive) in the assay with SK-OV-3; 31 µM (inactive) in the assay with Hs-578T; 22.9 µM (inactive) in the assay with RPMI-8226; 57.5 µM (inactive) in the assay on UO-31; 34.9 µM (inactive) in the assay with SNB-19; 41.9 µM (inactive) with T47D.

As for `Cc1coc2c1[C@@H](O)[C@@]1(C)[C@H](CCC[C@@H]1C)C2`, the GI50 in the assay on CAKI-1 is 72.6 µM (inactive); with NCI-H226, 25.5 µM (inactive); in the assay with MOLT-4, 24.8 µM (inactive); with SK-MEL-28, 48.2 µM (inactive); with ACHN, 33.8 µM (inactive); in the assay on HCC 2998, 42.4 µM (inactive). Moreover, the GI50 in the assay with KM12 was 85.3 µM (inactive); in the assay on OVCAR-5, 67 µM (inactive); in the assay on MDA-MB-231, 27.2 µM (inactive); with SF-539, 21.5 µM (inactive); with EKVX it was 69 µM (inactive); with M14, 18.2 µM (inactive). For the same compound, the GI50 in the assay with SK-OV-3 is 48.4 µM (inactive); in the assay with Hs-578T, 61.7 µM (inactive); in the assay with RPMI-8226, 31.8 µM (inactive); in the assay with SNB-19, 72.9 µM (inactive); in the assay with T47D it was 31.4 µM (inactive).

Regarding `c1cc2sc1CSCCSCCSC2`, the GI50 in the assay with MOLT-4, in the assay with SK-MEL-28, in the assay on A549, with HCC 2998, with KM12 and in the assay on OVCAR-5 was > 100 µM (inactive) in each case. In addition, the GI50 with MDA-MB-231, in the assay with SF-539, in the assay on EKVX, with BT-549, in the assay with M14 and in the assay on SK-OV-3 was > 100 µM (inactive) each time. Further, the GI50 in the assay on UO-31, in the assay with SNB-19 and in the assay with T47D was > 100 µM (inactive) each time.

As for `Cc1ccc2[nH]/c(=N/S(=O)(=O)c3cc(C)c(Cl)cc3S)[nH]c2c1`, the GI50 was 48.1 µM (inactive) in the assay on CAKI-1; 25.6 µM (inactive) in the assay on MOLT-4; 45.7 µM (inactive) with SK-MEL-28; 44.2 µM (inactive) with A549; 41.2 µM (inactive) in the assay with ACHN; > 100 µM (inactive) in the assay on HCC 2998. For the same compound, the GI50 with KM12 is 41.6 µM (inactive); in the assay with OVCAR-5, > 100 µM (inactive); in the assay with MDA-MB-231, > 100 µM (inactive); in the assay with SF-539, 74.3 µM (inactive); with EKVX it was 31.9 µM (inactive); in the assay on BT-549, > 100 µM (inactive). Also, the GI50 with M14 was 97.7 µM (inactive); with SK-OV-3, > 100 µM (inactive); with Hs-578T, 88.3 µM (inactive); in the assay with RPMI-8226, 40 µM (inactive); in the assay on UO-31 it was 57 µM (inactive); in the assay on SNB-19 it was 36.3 µM (inactive). Besides, in the assay with T47D, the GI50 is 44.9 µM (inactive).

Consider `COc1cccc(C(C#N)NNC(=O)c2c(Cl)c(Cl)c(Cl)c(Cl)c2-c2nc3cc(C(=O)c4ccccc4)ccc3[nH]2)c1O` (stereo not drawn), for which the GI50 is 6.25 µM (inactive) in the assay with CAKI-1; 3 µM (inactive) in the assay on NCI-H226; 2.78 µM (inactive) in the assay on MOLT-4; 9.73 µM (inactive) with SK-MEL-28; 4.06 µM (inactive) in the assay with A549; 6.44 µM (inactive) in the assay on ACHN. For the same compound, the GI50 in the assay on KM12 was 3.64 µM (inactive); in the assay with OVCAR-5 it was 18.6 µM (inactive); in the assay with MDA-MB-231 it was 4.15 µM (inactive); in the assay on SF-539, 2.63 µM (inactive); in the assay on EKVX it was 14.3 µM (inactive); with BT-549 it was 6.37 µM (inactive). In addition, the GI50 in the assay on M14 is 3.66 µM (inactive); with SK-OV-3 it was 3.03 µM (inactive); in the assay with RPMI-8226, 3.55 µM (inactive); in the assay with UO-31, 6.84 µM (inactive); in the assay on SNB-19, 4.63 µM (inactive); with T47D, 2.79 µM (inactive).

Take `Cc1c(C)c2ccc(O)cc2[nH]c1=O`: the GI50 in the assay on CAKI-1, in the assay with NCI-H226, in the assay with MOLT-4, in the assay with SK-MEL-28, with A549 and in the assay with ACHN was > 100 µM (inactive) throughout. In addition, the GI50 in the assay with HCC 2998, in the assay on KM12, in the assay on OVCAR-5, in the assay with MDA-MB-231, in the assay on SF-539 and in the assay on EKVX was > 100 µM (inactive) in each case. Further, the GI50 in the assay on BT-549, with M14, with RPMI-8226, in the assay on UO-31, in the assay with SNB-19 and with T47D was > 100 µM (inactive) in each case.

Regarding `C=C(C)CCC(=O)[C@](C)(O)[C@H]1[C@H](O)C[C@@]2(C)[C@@H]3CCc4c(cc(OC5OC(CO)C(O)C(O)C5O)c(O)c4C)C3(C)C(=O)C[C@]12C` (stereo partly drawn), the GI50 with CAKI-1, in the assay on NCI-H226, in the assay with MOLT-4, in the assay with SK-MEL-28, with A549 and in the assay with ACHN was > 100 µM (inactive) throughout. Further, the GI50 in the assay on HCC 2998, in the assay with KM12, in the assay with OVCAR-5, in the assay on MDA-MB-231, in the assay on SF-539 and with EKVX was > 100 µM (inactive) throughout. Besides, the GI50 in the assay on BT-549, in the assay on M14, with SK-OV-3, with UO-31, in the assay on SNB-19 and with T47D was > 100 µM (inactive) throughout.

Regarding `O=[N+]([O-])c1nccn1CC1OC(n2ccnc2[N+](=O)[O-])C(O)C(O)C1O` (stereo not drawn), the GI50 in the assay on NCI-H226, in the assay with MOLT-4, in the assay with SK-MEL-28, with A549, in the assay with ACHN and in the assay on HCC 2998 was > 100 µM (inactive) throughout. For the same compound, the GI50 in the assay on KM12, with OVCAR-5, in the assay on EKVX, in the assay with BT-549, with M14 and with Hs-578T was > 100 µM (inactive) throughout. The GI50 is > 100 µM (inactive) with RPMI-8226, > 100 µM (inactive) in the assay with UO-31, > 100 µM (inactive) with SNB-19 and 23.9 µM (inactive) with T47D.
